Values of other authors, collected in patent US8912192B2, “Extended release preparation” (Taisho Pharmaceutical Co., Ltd, priority 2010, dated 2014).
Structures can show the parent of a compound that is named as a salt. Where two headings read alike, the source gives them in different places.

Assays:
[1] = preparation containing a pharmaceutically acceptable salt of compound A, oral, dogs, fasting state
[2] = pharmaceutically acceptable salt of compound A
[3] = tested on: phosphodiesterase III enzymes; conditions: compound A or a pharmaceutically acceptable salt thereof

Structure (SMILES) | bioavailability [1] | solubility in water ([2]; around neutral pH range similar to enteric environment) | solubility in water ([2]; pH range of about 4.0 or higher) | inhibitory effect against phosphodiesterase III enzymes [3] | half-life period in blood plasma (blood plasma) | half-life period (in vivo) [h]
O=c1[nH]nc(OCCCc2ccc(Cl)cc2)c(NCc2cccnc2)c1Br [compound A, 4-bromo-6-[3-(4-chlorophenyl)propoxy]-5-(3-pyridylmethylamino)-3(2H)-pyridazinone] | about 10% | quite poorly soluble | decreases its solubility in water | has an inhibitory effect against phosphodiesterase III enzymes | about 1.5 hours | 
CC(N)C(O)c1ccccc1 (stereo not drawn) [phenylpropanolamine hydrochloride, reference compound] |  |  |  |  |  | 4
